Tests used:
[1] = Thermodynamic solubility in PBS; format: physicochemical; conditions: aqueous buffer, thermodynamic from solid; PBS pH 7.4; 24 hours at RT
Experimental: The thermodynamic solubility of test article was determined in PBS at pH 7.4 in duplicate. The test article (1.5 mg) in PBS was incubated for 24 hours at RT with shaking at 1100 rpm. Sample was then filtered using a vacuum manifold, diluted, and analyzed by LC-MS/MS. Chromatographic conditions: Phenomenex Synergi 4μ Hydro-PR 80A column (2.0×30 mm) coupled with pre-guard column; mobile phase=0.1% formic acid in acetonitrile and 0.1% formic acid in water; flowrate=0.65 mL/min; column temperature=40 degrees C.; injection volume: 10 μL.
Mobile phase: 0.1% formic acid in acetonitrile (A) and 0.1% formic acid in water (B)
Mass conditions: Turbo spray ion source; ESI ionization model; MRM scan type; Collison gas=6 L/min; Curtain gas=30 L/min; Nebulize gas=50 L/min; Auxiliary gas=50 L/min; Temperature=500 degrees C.; Ion spray voltage=+5500 v (positive MRM).
The filtered solution was analyzed and quantified against a standard of known concentration in DMSO using UPLC coupled with mass spectral peak identification and quantitation. Solubility values of the test articles were calculated using Microsoft Excel as follows (DF is the dilution factor): […]

[2] = test system: kainic acid induced seizures; assay: Kainic acid seizure model in the rat; format: in vivo; conditions: for anticonvulsant effects in the kainic acid seizure test: rat; for magnitude of the effects in the kainic acid seizure test compared with reference: middle-high doses, reference Diazepam 16 mg/kg p.o.
Experimental: Kainic acid is an analog of the excitatory neurotransmitter, glutamate and acts as an agonist of kainic acid receptors. After systemic injection, kainic acid induces prolonged excitatory responses with many of the features of human temporal lobe epilepsy.
Rats, placed in individual Plexiglas cages (33×21×18 cm), are injected with kainic acid (20 mg/kg i.p.). The occurrences of the following symptoms are noted over a 120-minute period 30 minutes after kainic acid injection: forelimb clonus, rearings and rearings with falling, clonic convulsions, tonic convulsions and death. The presence of each symptom and the latencies to the first appearance of the symptoms are measured. The number of forelimb clonus is counted.
12 rats are studied per group. The test is performed partially blind.
The test substances will be evaluated at multiple doses, administered p.o. 240 minutes before the test, and compared with the corresponding vehicle control group (Group 2, administered with 10% HP-b-CD in distilled water, p.o. 240 minutes before the test).
Example 6 was evaluated at 0.3, 1, 3 and 10 mg/kg, and Example 8 was evaluated at 1, 3 and 10 mg/kg, administered p.o. 4 hours before the test, and compared with a vehicle control group (administered with 10% HP-b-CD, p.o. 4 hours before the test).
Diazepam (16 mg/kg) used as reference substance, was administered p.o. 60 minutes before the test (0.5% HP-b-CD) and was compared with vehicle controls.
Quantitative data (latencies) with the test substance was analyzed by comparing treated groups with vehicle control using Kruskal-Wallis test followed by Mann-Whitney U test. Quantitative data with the reference substance will be analysed using Mann-Whitney U test.
Quantal data (frequencies) were analyzed by comparing treated groups with vehicle control using Fisher's Exact Probability tests.

Structure (SMILES): O=C(Nc1cccnn1)[C@H]1CC12CCN(C(=O)OC(C(F)(F)F)C(F)(F)F)CC2 [Example 6, 1,1,1,3,3,3-hexafluoropropan-2-yl (S)-1-(pyridazin-3-ylcarbamoyl)-6-azaspiro[2.5]octane-6-carboxylate]
- solubility thermodynamic at 24 h [1]: 71.5 µg/mL
- anticonvulsant effects in the kainic acid seizure test ([2]; dose-range 0.3-10 mg/kg p.o. 4 hours before the test): clear anticonvulsant effects
- magnitude of the effects in the kainic acid seizure test compared with reference [2]: close to those observed with the reference substance, Diazepam

Structure (SMILES): O=C(NC1CCOCC1)[C@H]1CC12CCN(C(=O)OC(C(F)(F)F)C(F)(F)F)CC2 [Example 8, 1,1,1,3,3,3-hexafluoropropan-2-yl (S)-1-[(oxan-4-yl)carbamoyl]-6-azaspiro[2.5]octane-6-carboxylate]
- solubility thermodynamic at 24 h [1]: 606 µg/mL
- anticonvulsant effects in the kainic acid seizure test ([2]; dose-range 1-10 mg/kg p.o. 4 hours before the test): clear anticonvulsant effects
- magnitude of the effects in the kainic acid seizure test compared with reference [2]: close to those observed with the reference substance, Diazepam

From US11434222B2, “MAGL inhibitors” (H. LUNDBECK A/S, priority 2020, dated 2022)
